Counter-ions that a name gives are not always drawn.
How the values were obtained:
[1] = system: extracellular concentration of ACh in the nucleus accumbens; test: in vivo extracellular ACh concentration, push-pull technique, i.c.v. injection; set-up: species or system Sprague-Dawley rats; conditions: 2 µmol i.c.v.; for extracellular concentration of ACh (relative value, means ± SEM): mean before drug = 1.0
Description: Surgery and push-pull technique: Sprague-Dawley rats (250-350 g) were anaesthetized with urethane 1,2 g/kg, i.p. The head was fixed in a stereotaxic frame and a push-pull cannula (outer tubing: o.d. 0.75 mm, i.d. 0.41 mm; inner tubing: o.d. 0.26 mm, i.d. 0.13 mm) was mounted on a microdrive. This was stereotaxically inserted through a hole in the skull into the nucleus accumbens (coordinates, mm from bregma: AP, +1.2; L, +2.5; V, -7.8; Paxinos & Watson, 1998). A second hole was drilled into the skull for the i.c.v. application of drugs (coordinates, mm from bregma: AP, -2,8; L, +1,5) The nucleus accumbens was superfused at 20µL/min with artificial cerebrospinal fluid (aCSF), pH 7.2. The CSF consisted of: NaCl,140; KCI, 3; CaCl2, 1.2; MgCl2 1; Na2HPO4, 1; NaH2PO4, 0.3; glucose 3.0 (mmol I^-1), neostigmine 1.0 (µmol/l^-1). After 1 h of the cannula insertion the samples were collected into tubes kept at -20° C in time periods of 10 min and then stored at -80° C until acetylcholine (Ach) was determined.
Using a motorized microsyringe connected to a stereotaxic microdrive, the tip was introduced with an angle of 60° through the drug application-hole into the ipsilateral ventricle (coordinates mm from bregma: AP, -0,9; L, +1,5; V, -3,8) via a cannula (o.d., 0,65; i.d., 0,38). The drug solutions were injected at 2µL/min. The control rats were injected with the vehicle (DMSO: EtOH 1:1).
Histology: At the end of the experiment the rat was killed with an overdose of urethane, the brain was removed and stored in buffered formaldehyde solution (7%). Serial coronal sections were cut at 50 µm intervals. Localisation of the push-pull cannula and i.c.v. microinjection was verified. Experiments with unsatisfactory localisation were discarded.
Determination of acetylcholine: (Ach): ACh content in the samples was determined by HPLC with a cation-exchanging analytical column and a post-column reactor followed by electrochemical detection (Damsma et al, 1997; Prast et al; 1998). The system consisted of a HPLC-pump (JASCO PU-1580, Jasco Corporation, Tokyo, Japan), a pulse dampener and an autosampler (AS-4000, Hitachi Ltd., Tokyo, Japan) with a 100-µL sample loop. […] The peroxide was electrochemically detected by a UniJet platin electrode (3mm) at +500 mV with an amperometric detector (BAS LC-4, Bioanalytical Systems, West Lafayette, IN, USA). […] ACh was quantified with external standards that were injected at the beginning and the end of the analysis.
Statistical significance of drug effects on the extracellular ACh concentration was calculated by Friedman's analysis of variance, followed by Wilcoxon's signed rank test for paired data (a p<0.08, * p<0.05, ** p<0,001) using the mean concentration rate before the administration of drugs as controls. […]

acetylcholinesterase [2] = biological target: T1, acetylcholinesterase (Electrophorus electricus, UniProt O42275); test: bioautographic TLC test for AChE inhibitory activity (Ellman's method); type: biochemical; set-up: purchased Sigma-Aldrich Chemie GmbH, Steinheim, Germany; conditions: spots of methanolic extract of S. carniolica rhizomes, Rf 0.6 (SCT) and 0.4 (SCN); false positives excluded
Protocol: The AChE inhibitory activity of the methanolic crude extract was qualitatively determined in a TLC assay using Ellman's method (Ellman, et al, 1961). Additionally a test to exclude false positive results was conducted described by Rhee et al, 2003. The used silica gel TLC plates 60F254 (0.2 mm thickness) were purchased from Merck (Darmstadt, Germany). […] Enzyme inhibitory activities were detected by spraying the substrate, dye and enzyme described by Rhee and coauthors (Rhee et al, 2001).
(§1) In both test systems, the enzyme (acetylcholinesterase, Sigma-Aldrich Chemie GmbH, Steinheim, Germany) hydrolyzes the substrate acetylthiocholine (acetylthiocholiniodid, Sigma-Aldrich Chemie GmbH, Steinheim, Germany) to produce thiocholine. This reacts with Ellman's reagent (5,5'-dithiobis-(2-nitrobenzoic acid), Sigma-Aldrich Chemie GmbH, Steinheim, Germany) resulting in 5-thio-2-nitrobenzoate and the yellow colored 2-nitrobenzoate-5-mercaptothiocholine. This latter was visually detected in the TLC test.

acetylcholinesterase [3] = biological target: T1, acetylcholinesterase; test: biochemical
Description: as §1
The self absorbance of all ingredients of the assay was corrected by subtracting the absorbance at time zero from the subsequent absorbance values. […] For all three substances the concentration dependence of their AChE inhibitory activity was determined. Percentage of the enzyme inhibition was calculated by comparing the rates for the sample to the blank (containing 1% DMSO) and analyzed with Student's t-test.

mice [4] = test: open field locomotor behaviour; type: in vivo; conditions: 2 µg ICV, 30 min
Protocol: (§2) […] female, 3-month mice, weighing 20 - 27 g, were used in the present study. The animals were housed in groups of six to ten in cages (40 (L) x 25 (W) x 15 (H) cm) placed in a room at a constant temperature (22±1 °C), 12-light/ 12-dark cycle (07:00-19:00 h), with food and water ad libitum. Experiments were conducted between 09:00 and 16:00h.
Mice were anaesthetized with Pentobarbital sodium (60 mg/kg, i.p.) and placed in a stereotaxic frame. A guide cannula (gauge 25, o.d. 0.52 mm, i.d, 0.26 mm and 7 mm long) was stereotaxically implanted through a hole on the skull into the brain area 0.5 mm higher than the third cerebral ventricle (-0.1 mm posterior, 0.8 mm lateral to bregma, -2.2 mm ventral to the dura) (Franklin and Paxinos, 1997). Guide cannula was secured to the skull using two small screws and dental cement. The microinjector (Hamilton gauge 32, o.d. 0.24 mm and i.d. 0.11 mm, 7.5 mm long) protruded 0.5 mm from the tip of the guide cannula to reach the cerebral ventricle. Mice recovered for 5 days before any experimentation was done. […]
The open field consisted of a transparent plastic box with white floor (41 x 41 x 41 cm) equipped with an automated activity monitoring system (True Scan, Coulbourn Instruments, Allentown, USA). […] The time spent in box and the overall distance travelled by the mice were monitored for 30 min. […]

mice [5] = test: T-maze continuous alternation; type: in vivo
Protocol: as §2
(§3) Mice were anaesthetized with Pentobarbital sodium (60 mg/kg, i.p.) and placed in a stereotaxic frame. A guide cannula (gauge 25, o.d. 0.52 mm, i.d, 0.26 mm and 7 mm long) was stereotaxically implanted through a hole on the skull into the brain area 0.5 mm higher than the third cerebral ventricle (-0.1 mm posterior, 0.8 mm lateral to bregma, -2.2 mm ventral to the dura) (Franklin and Paxinos, 1997). Guide cannula was secured to the skull using two small screws and dental cement. The microinjector (Hamilton gauge 32, o.d. 0.24 mm and i.d. 0.11 mm, 7.5 mm long) protruded 0.5 mm from the tip of the guide cannula to reach the cerebral ventricle. Mice recovered for 5 days before any experimentation was done.
Scopolamine hydrobromide (Sigma, St. Louis, MO, U.S.A.) was dissolved in saline. SCT (Sigma-Aldrich Chemie GmbH, Steinheim, Germany) was dissolved in vehicle solution (DMSO:sterile water, 3:7). The animals were randomly divided into experimental groups and administered a cerebral ventricle injection of saline, scopolamine, SCT or scopolamine and SCT in a volume of 1 or 2 µl during 1 min. The injector was left in place an extra 1 min for drug diffusion after injection. These substances and vehicle were injected 15 min prior to the test.
Animals were randomly divided into […] experimental groups (6 mice per group) as follows: vehicle, scopolamine hybrobromide 20 µg (50 nmol) in 1µl ICV, SCT 2 µg (10 nmol) in 2µl ICV and scopolamine hybrobromide 20 µg plus SCT 2 µg ICV. All substances were injected 15 min before the test (T-maze and open field) or before the training trial T1 (object recognition test) through the 7.5 mm long injector connected with i.d. 0.28 mm polyethylene tubing to 5 µl Hamilton syringe. […]

mice [6] = test: object recognition task; type: in vivo
Protocol: as §2, §3
Scopolamine hydrobromide (Sigma, St. Louis, MO, U.S.A.) was dissolved in saline. […]
Exploration was defined as follows: directing the nose toward the object at a distance of less than 0.5 cm and/or touching the object with the nose. […] The times spent by mice in exploring each object during T1 and T2 were recorded manually by using a stopwatch. […]

T1 sequence (O42275 24-633): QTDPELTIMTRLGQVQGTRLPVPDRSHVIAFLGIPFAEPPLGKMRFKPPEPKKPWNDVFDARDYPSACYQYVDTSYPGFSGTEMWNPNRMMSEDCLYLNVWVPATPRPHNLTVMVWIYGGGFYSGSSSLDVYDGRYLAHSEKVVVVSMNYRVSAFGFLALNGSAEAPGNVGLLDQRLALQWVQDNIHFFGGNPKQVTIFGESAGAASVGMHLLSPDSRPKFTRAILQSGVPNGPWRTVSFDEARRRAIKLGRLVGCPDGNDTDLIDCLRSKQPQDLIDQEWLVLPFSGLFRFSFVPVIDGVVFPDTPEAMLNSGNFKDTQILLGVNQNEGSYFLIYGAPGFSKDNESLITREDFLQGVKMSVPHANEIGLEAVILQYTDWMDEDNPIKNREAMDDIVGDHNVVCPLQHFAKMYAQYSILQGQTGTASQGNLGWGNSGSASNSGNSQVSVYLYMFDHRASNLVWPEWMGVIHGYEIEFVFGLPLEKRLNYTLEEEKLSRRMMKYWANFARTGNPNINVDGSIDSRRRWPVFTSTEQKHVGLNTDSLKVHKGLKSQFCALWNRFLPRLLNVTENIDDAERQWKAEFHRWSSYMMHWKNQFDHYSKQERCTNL

Row | Compound | extracellular concentration of ACh (relative value, means ± SEM) ([1]; rat nucleus accumbens) | AChE inhibitory activity of fluorescent TLC spot (acetylcholinesterase [2]) | change of inhibitory activity up to 90 min (acetylcholinesterase [3]; higher concentrations (250, 500, 1000 µM)) | duration of inhibitory activity (acetylcholinesterase [3]; lower concentrations (62.5, 125 µM)) | time until level of inhibitory activity is reached (acetylcholinesterase [3]; lower concentrations (62.5, 125 µM), after adding enzyme to substrate) [min] | move distance, reduction compared to vehicle-treated controls (mice [4]) | move time in the open field (mice [4]; vs vehicle-treated controls) | alternation rate (mice [5]; 2 µg ICV alone) [%] | effect on scopolamine-induced decrease in alternation rate (mice [5]; SCT 2 µg ICV plus scopolamine 20 µg ICV) | discrimination index, effect on scopolamine-induced impairment of object recognition (mice [6]; SCT 2 µg ICV plus scopolamine 20 µg ICV, 15 min before T1, mice) | effect on alternation rate (mice [5]; 20 µg ICV) | effect on learning in object recognition (discrimination novel vs familiar object in T2) (mice [6]; 20 µg ICV, mice) | ACh concentration after decline, of basal value ([1]; following the initial peak) | initial peak concentration of ACh, of basal value ([1]; rat nucleus accumbens) | inhibition of AChE, statistical significance (acetylcholinesterase [3]; 1000, 500 and 250 µM) | inhibition at 1000 µM (acetylcholinesterase [3]; read-out: AChE inhibitory activity) [%] | time until inhibitory activities reach their maximum extent (acetylcholinesterase [3]; three highest concentrations) [min] | change of inhibitory activity towards endpoint of measurement at 90 min (acetylcholinesterase [3]; three highest concentrations, after maximum in first 15 min)
1 | COc1cc2ccc(=O)oc2cc1O [SCT, scopoletin] | 1,74 ± 0,24 | positive | slight, almost insignificant increase | at least 90 min | ≤ 15 | about 20% | only slightly decreased | 63 ± 5 | abolished | significantly increased | – | – | – | – | – | – | – | –
2 | CN1[C@@H]2C[C@@H](OC(=O)[C@H](CO)c3ccccc3)C[C@H]1[C@@H]1O[C@@H]12 [Scopolamine, Scopolamine hydrobromide, reference compound] | – | – | – | – | – | – | – | – | – | – | pronounced decrease | drastic impairment of learning | – | – | – | – | – | –
3 | COc1cc2ccc(=O)oc2cc1O[C@@H]1O[C@H](CO)[C@@H](O)[C@H](O)[C@H]1O [SCN, scopolin] | 3.18 ± 0.78 | positive | – | – | – | – | – | – | – | – | – | – | about 200% | about 400% | significant | 30.1 | ≤ 15 | slight decrease

Reference: patent EP1588705A1, “Use of coumarin derivatives” (INTE:LIGAND Software-Entwicklungs und Consulting GmbH, priority 2004, dated 2005)
